# Earlier results in patent publication US10729778B2, “Carrier-linked treprostinil prodrugs” (Ascendis Pharma A/S, priority 2011, dated 2020).
# Conditions: background statement
smiles,measurement,value
CCCCC[C@H](O)CC[C@@H]1[C@H]2Cc3cccc(OCC(=O)O)c3C[C@H]2C[C@H]1O [Treprostinil],half-life,4 h
